“And” between values parts separate entries of the source, which are not always exact repeats. Equal entries are not always repeated.
Assay: xn = mol fraction of the nth substance listed
Conditions: Gas, Buoyancy - hydrostatic balance with magnetic suspension - two sinkers

CC [ethane] + O=C=O
Conditions | mass density
273.15 K, 531.09 kPa, x1 = 0.2003 | 10.008 kg/m3
273.15 K, 531.52 kPa, x1 = 0.2003 | 10.0165 kg/m3
273.15 K, 531.92 kPa, x1 = 0.2003 | 10.0243 kg/m3
273.15 K, 534.39 kPa, x1 = 0.2003 | 10.0711 kg/m3
273.15 K, 534.79 kPa, x1 = 0.2003 | 10.0789 kg/m3
273.15 K, 535.19 kPa, x1 = 0.2003 | 10.087 kg/m3
273.15 K, 535.63 kPa, x1 = 0.2003 | 10.0955 kg/m3
273.15 K, 544.52 kPa, x1 = 0.2003 | 10.2735 kg/m3
273.15 K, 544.86 kPa, x1 = 0.2003 | 10.2801 kg/m3
273.15 K, 548.14 kPa, x1 = 0.4995 | 9.33133 kg/m3
273.15 K, 551.38 kPa, x1 = 0.05023 | 10.9267 kg/m3
273.15 K, 1023.8 kPa, x1 = 0.2003 | 20.0462 kg/m3
273.15 K, 1024.6 kPa, x1 = 0.2003 | 20.0627 kg/m3
273.15 K, 1025.4 kPa, x1 = 0.2003 | 20.0779 kg/m3
273.15 K, 1026.6 kPa, x1 = 0.2003 | 20.1024 kg/m3
273.15 K, 1027 kPa, x1 = 0.2003 | 20.1108 kg/m3
273.15 K, 1027.6 kPa, x1 = 0.2003 | 20.1219 kg/m3
273.15 K, 1037.4 kPa, x1 = 0.2003 | 20.3384 kg/m3
273.15 K, 1037.8 kPa, x1 = 0.2003 | 20.347 kg/m3
273.15 K, 1051.5 kPa, x1 = 0.4995 | 18.6959 kg/m3
273.15 K, 1075.8 kPa, x1 = 0.05023 | 22.195 kg/m3
273.15 K, 2035.1 kPa, x1 = 0.2003 | 43.7258 kg/m3
273.15 K, 2035.5 kPa, x1 = 0.2003 | 43.7371 kg/m3
273.15 K, 2050.8 kPa, x1 = 0.4995 | 40.4917 kg/m3
273.15 K, 2062 kPa, x1 = 0.05023 | 46.5645 kg/m3
273.15 K, 2554 kPa, x1 = 0.4995 | 53.9302 kg/m3
273.15 K, 2562.2 kPa, x1 = 0.05023 | 61.2253 kg/m3
273.15 K, 3037.3 kPa, x1 = 0.2003 | 73.9637 kg/m3
273.15 K, 3037.9 kPa, x1 = 0.2003 | 73.9838 kg/m3
273.15 K, 3053.1 kPa, x1 = 0.05023 | 77.9966 kg/m3
273.15 K, 3054.4 kPa, x1 = 0.4995 | 70.1143 kg/m3
273.15 K, 3480.6 kPa, x1 = 0.2003 | 91.4391 kg/m3 and 91.4331 kg/m3
273.15 K, 3488.2 kPa, x1 = 0.2003 | 91.7868 kg/m3
273.15 K, 3488.7 kPa, x1 = 0.2003 | 91.8117 kg/m3
273.15 K, 3489.4 kPa, x1 = 0.2003 | 91.84 kg/m3
273.15 K, 3507.2 kPa, x1 = 0.2003 | 92.6352 kg/m3 and 92.638 kg/m3
283.15 K, 518.17 kPa, x1 = 0.2003 | 9.36982 kg/m3
283.15 K, 519.18 kPa, x1 = 0.05023 | 9.86023 kg/m3
283.15 K, 538.66 kPa, x1 = 0.4995 | 8.79999 kg/m3
283.15 K, 1030 kPa, x1 = 0.05023 | 20.2371 kg/m3
283.15 K, 1031.7 kPa, x1 = 0.4995 | 17.4887 kg/m3
283.15 K, 1041.5 kPa, x1 = 0.2003 | 19.5141 kg/m3
283.15 K, 2018.1 kPa, x1 = 0.4995 | 37.3012 kg/m3
283.15 K, 2025.9 kPa, x1 = 0.05023 | 42.9555 kg/m3
283.15 K, 2038.1 kPa, x1 = 0.2003 | 41.2701 kg/m3
283.15 K, 3029.9 kPa, x1 = 0.05023 | 70.7861 kg/m3
283.15 K, 3032.8 kPa, x1 = 0.4995 | 62.9635 kg/m3
283.15 K, 3042.8 kPa, x1 = 0.2003 | 68.0188 kg/m3
283.15 K, 3546.2 kPa, x1 = 0.05023 | 88.2259 kg/m3
283.15 K, 3550.3 kPa, x1 = 0.4995 | 79.7057 kg/m3
283.15 K, 4013.1 kPa, x1 = 0.4995 | 98.6426 kg/m3
283.15 K, 4045.7 kPa, x1 = 0.05023 | 108.543 kg/m3
283.15 K, 4069.8 kPa, x1 = 0.2003 | 104.912 kg/m3
283.15 K, 4501.8 kPa, x1 = 0.2003 | 126.607 kg/m3
283.15 K, 4602.7 kPa, x1 = 0.2003 | 132.714 kg/m3
283.15 K, 4730.9 kPa, x1 = 0.2003 | 141.359 kg/m3
283.15 K, 4821.7 kPa, x1 = 0.2003 | 148.288 kg/m3
293.15 K, 519.57 kPa, x1 = 0.2003 | 9.04307 kg/m3
293.15 K, 525.66 kPa, x1 = 0.4995 | 8.25163 kg/m3
293.15 K, 1026.1 kPa, x1 = 0.4995 | 16.6496 kg/m3
293.15 K, 1034.3 kPa, x1 = 0.2003 | 18.5618 kg/m3
293.15 K, 2026.9 kPa, x1 = 0.2003 | 38.8656 kg/m3
293.15 K, 2045.8 kPa, x1 = 0.4995 | 35.8484 kg/m3
293.15 K, 3032.6 kPa, x1 = 0.4995 | 58.2406 kg/m3
293.15 K, 3042.1 kPa, x1 = 0.2003 | 63.2873 kg/m3
293.15 K, 4051.5 kPa, x1 = 0.4995 | 88.2376 kg/m3
293.15 K, 4055.4 kPa, x1 = 0.2003 | 93.5899 kg/m3
293.15 K, 4555.2 kPa, x1 = 0.4995 | 107.86 kg/m3
293.15 K, 5019.3 kPa, x1 = 0.4995 | 131.598 kg/m3
293.15 K, 5020.8 kPa, x1 = 0.2003 | 133.141 kg/m3
308.15 K, 542.53 kPa, x1 = 0.4995 | 8.06912 kg/m3
308.15 K, 1040.9 kPa, x1 = 0.4995 | 15.9143 kg/m3
308.15 K, 2034.5 kPa, x1 = 0.4995 | 33.0477 kg/m3
308.15 K, 3050.6 kPa, x1 = 0.4995 | 53.2563 kg/m3
308.15 K, 4038.3 kPa, x1 = 0.4995 | 76.6788 kg/m3
308.15 K, 4551.5 kPa, x1 = 0.4995 | 90.9786 kg/m3
308.15 K, 5013.9 kPa, x1 = 0.4995 | 105.639 kg/m3
323.15 K, 524.46 kPa, x1 = 0.05023 | 8.6271 kg/m3
323.15 K, 543.73 kPa, x1 = 0.4995 | 7.68033 kg/m3
323.15 K, 1024.4 kPa, x1 = 0.4995 | 14.7964 kg/m3
323.15 K, 1024.9 kPa, x1 = 0.05023 | 17.2074 kg/m3
323.15 K, 2039.4 kPa, x1 = 0.05023 | 35.7934 kg/m3
323.15 K, 2040.2 kPa, x1 = 0.4995 | 31.0101 kg/m3
323.15 K, 3036.4 kPa, x1 = 0.4995 | 48.806 kg/m3
323.15 K, 3038.7 kPa, x1 = 0.05023 | 55.972 kg/m3
323.15 K, 4027.4 kPa, x1 = 0.4995 | 68.9564 kg/m3
323.15 K, 4049.9 kPa, x1 = 0.05023 | 78.8065 kg/m3
323.15 K, 5024.6 kPa, x1 = 0.4995 | 92.5708 kg/m3
323.15 K, 5061.4 kPa, x1 = 0.05023 | 104.85 kg/m3
323.15 K, 5982.2 kPa, x1 = 0.4995 | 119.675 kg/m3
323.15 K, 6013.8 kPa, x1 = 0.05023 | 133.393 kg/m3

Reference: the NIST ThermoML archive (doi:10.1016/j.jct.2018.02.021)
